Reference: US20250049914A1, “STEROID ACID-PEPTIDE BASED INTRACELLULAR CARGO DELIVERY” (DEFENCE THERAPEUTICS INC., priority 2021, published 2025)
Where no end group is shown, it is not given here.

Experiments:
JIMT-1 cells = experiment: Cas9-GFP delivery with Lipofectamine CRISPRMAX transfection reagent; type: cell-based
Method: To assess whether the enhanced intracellular delivery conferred by bile acid-NLS moieties is compatible with other delivery technologies, a delivery experiment in JIMT-1 cells was performed using Lipofectamine™ CRISPRMAX™ Cas9 Transfection Reagent (Thermo Fisher Scientific) according to the manufacturer's protocol, except that the cargo was Cas9-GFP alone or conjugated to/mixed with different bile acid-NLS moieties. The results are shown in Table 3 with GFP fluorescence values being normalized to that of cells incubated with the unconjugated cargo/transfection reagent alone (Cas9-GFP alone). […] Fluorescence microscopy experiments in live cells confirmed that the Cas9-GFP cargoes were successfully delivered to the nucleus of JIMT-1 cells (data not shown).

BMDCs = experiment: Antigen-presentation assay using the B3Z reporter system, BMDCs; type: cell-based, mouse; settings: BMDCs, OVA admixed, best conjugate: antigen ratio
Method: Mouse bone marrow derived DCs (BMDCs) were generated by flushing the whole marrow from mouse femurs using RPMI™ 1640 supplemented with 10% fetal bovine serum (FBS), 50 U/mL Penicillin-Streptomycin, 2 mM L-glutamine, 10 mM HEPES, 1% MEM Non-essential Amino Acids, 1 mM Sodium Pyruvate, 0.5 mM beta-mercaptoethanol. Following red blood cell lysis, cells were then cultured in media supplemented with 50 ng/mL murine recombinant GM-CSF. The media was changed on days 2, 4, 6 and 8. On day 9, the media was replaced to include recombinant murine GM-CSF and LPS from Escherichia coli 0111 (1 ng/mL) to stimulate DC maturation. Mature DCs were assessed by flow cytometry for their surface expression of CD3, CD19, NK1.1, CD11c, CD80, CD86, and I-A^b.
(§1) Various bile acid-NLS conjugates were screened using the B3Z reporter system. The B3Z cell line is a T-cell hybridoma specific for the H2-K^b-[…] complex. Once activated via its TCR, the LacZ reporter gene (under the NFAT promoter control) is expressed. Briefly, 1.5×10^5 BMDCs or 2.5×10^5 MSCs were co-cultured with 5×10^4 B3Z cells treated with the mixing conditions of ovalbumin (OVA) and bile acid-NLS conjugates for overnight at 37° C. with 5% CO2. The following day, all cells were washed twice with PBS (pH 7.4), and the cell pellets were lysed by adding 100 μL of a lysis buffer containing 0.15 mM chlorophenol red-beta-D-galactopyranoside (CPRG) substrate (Calbiochem, La Jolla, CA), 0.125% NP40 (EMD Sciences, La Jolla, CA), 9 mM MgCl2 (Aldrich, USA) and 100 mM 2-mercaptoethanol in PBS. After a 5- or 24-h incubation at 37° C., absorbance was taken at 570 nm with 636 nm as the reference wavelength. For these experiments, OVA was re-suspended in PBS (pH 7.3) at 5-10 mg/mL. The different bile acid-NLS conjugates were re-suspended in H2O at 10 mg/mL. Bile acid-NLS conjugate: antigen mixtures were prepared at different molar ratios according to Table 1.
Variants of CA-SV40NLS were synthesized in order to explore structure-activity relationships relating to the antigen cross-presentation enhancing activity observed for this conjugate, and therefore a measure of antigen/cargo delivery. More particularly, conjugates having different bile acids conjugated to the SV40NLS peptide (SEQ ID NO: 1) were synthesized and their effect on antigen presentation was evaluated by using the B3Z reporter system with the OVA antigen as described in Example 1. […] In FIG. 11, no increase in antigen cross-presentation in BMDCs over the antigen alone (“OVA”) was observed when OVA was mixed with either unconjugated cholic acid (“CA”) or SV40NLS peptide (“SV40NLS”), although lower sensitivity of the B3Z reporter system as compared to the OT-I CD8 T cell-based assay may have been a factor.
(§2) Further variants of CA-SV40NLS were synthesized in which the SV40NLS peptide was replaced with peptides comprising other NLS's (Table 5) and the antigen presentation activities of the CA-NLS peptide conjugates were evaluated using the B3Z reporter system as described in Example 1. The following conjugate: antigen molar ratios were tested for each conjugate: 2:1, 4:1, 8:1, 12:1 and 22:1. The results in FIGS. 12-15 compare the antigen presentation activities of different conjugates at the conjugate: antigen ratio that yielded the highest B3Z response (OD570) for that conjugate.

[1] = test system: cross-presenting mesenchymal stromal cell line (cpMSC); experiment: Antigen-presentation assay using the B3Z reporter system, cross-presenting MSC line; type: cell-based; settings: cpMSCs, OVA admixed, vs OVA alone or OVA mixed with CA-SV40NLS
Method: as §1, §2

## CA-HuR: cholic acid conjugated to HuR NLS peptide CGRFSPMGVDHMSGLSGVNVPG (SEQ ID NO: 13) (not fully specified (N-terminus); also: cholic acid conjugate, site not given here)
JIMT-1 cells
  increase in intracellular Cas9-GFP delivery vs Cas9-GFP/transfection reagent alone: 17 fold
BMDCs
  antigen-presentation activity of cholic acid-NLS peptide conjugates (B3Z response): high antigen presentation activity
[1]
  antigen-presentation activity of cholic acid-NLS peptide conjugates (B3Z response): strikingly high antigen-presentation activity
